Experimental data from US20260285850A1, “SUBSTITUTED OXAZOLIDINONES AND IMIDAZOLINONES AS HERBICIDES” (FMC CORPORATION, priority 2023, published 2026).

Columns and labels:
Assay type in all cases: in vivo
[1] = system: blackgrass (Alopecurus myosuroides); assay: Test A preemergence soil spray, visual injury rating 0-100; details: 10 days
In short: (§1)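 Preemergence directed soil spray or postemergence spray (2-10 cm, 1-2 leaf); loam/sand mix; compound in non-phytotoxic solvent + surfactant. Greenhouse, 10 d. Visual injury vs untreated, 0 = none, 100 = complete control.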

kochia (Bassia scoparia) [2] = assay: as above; details: 10 days
In short: as §1

[3] = system: ryegrass, Italian (italian ryegrass, Lolium multiflorum); assay: as above; details: 10 days
In short: as §1

corn (Zea mays) [4] = assay: as above; details: 10 days
In short: as §1

[5] = system: ragweed (common ragweed, Ambrosia artemisiifolia); assay: as above; details: 10 days
In short: as §1

[6] = system: green foxtail (Setaria viridis); assay: as above; details: 10 days
In short: as §1

[7] = system: barnyardgrass (Echinochloa crus-galli); assay: as above; details: 10 days
In short: as §1

soybean (Glycine max) [8] = assay: as above; details: 10 days
In short: as §1

[9] = system: oat, wild (wild oat, Avena fatua); assay: as above; details: 10 days
In short: as §1

[10] = system: wheat (Triticum aestivum); assay: as above; details: 10 days
In short: as §1

[11] = system: palmer (palmer amaranth, palmer pigweed, Amaranthus palmeri); assay: as above; details: 62 g ai/ha, 10 days, 0 = no effect, 100 = complete control
In short: as §1

[12] = system: barnyardgrass (Echinochloa crusgalli); assay: Test B flooded paddy test, visual plant response rating 0-100; details: 250 g ai/ha, Flood, applied to paddy water, evaluated after 13 days
In short: (§2)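 Visual scores versus untreated controls were recorded 13 days after treatment of greenhouse-held plants. At the 2-leaf stage, pots were flooded 3 cm above the soil surface and compounds added straight to the water.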

[13] = system: ducksalad (Heteranthera limosa); assay: as above; details: 250 g ai/ha, Flood, applied to paddy water, evaluated after 13 days
In short: as §2

rice (Oryza sativa) = assay: as above; details: 250 g ai/ha, Flood, applied to paddy water, evaluated after 13 days
In short: as §2

[14] = system: sedge, umbrella (small-flower umbrella sedge, Cyperus difformis); assay: as above; details: 250 g ai/ha, Flood, applied to paddy water, evaluated after 13 days
In short: as §2

[15] = system: blackgrass (Alopecurus myosuroides); assay: Test A postemergence application, visual injury rating 0-100
In short: as §1

kochia (Bassia scoparia) [16] = assay: as above
In short: as §1

[17] = system: ryegrass, Italian (italian ryegrass, Lolium multiflorum); assay: as above
In short: as §1

corn (Zea mays) [18] = assay: as above
In short: as §1

[19] = system: horseweed (Erigeron canadensis); assay: as above; details: 62 g ai/ha, postemergence, 10 days, 0 = no effect, 100 = complete control
In short: as §1

[20] = system: ragweed (common ragweed, Ambrosia artemisiifolia); assay: as above
In short: as §1

[21] = system: green foxtail (Setaria viridis); assay: as above
In short: as §1

[22] = system: barnyardgrass (Echinochloa crus-galli); assay: as above
In short: as §1

soybean (Glycine max) [23] = assay: as above
In short: as §1

[24] = system: oat, wild (wild oat, Avena fatua); assay: as above
In short: as §1

[25] = system: wheat (Triticum aestivum); assay: as above
In short: as §1

[26] = system: palmer (palmer amaranth, palmer pigweed, Amaranthus palmeri); assay: as above
In short: as §1

[27] = 62 g ai/ha, 0 = no effect, 100 = complete control
[28] = 62 g ai/ha, postemergence, 10 days, 0 = no effect, 100 = complete control
[29] = Postemergence, 16 g ai/ha, greenhouse 10 days, 0 no effect, 100 complete control

## CC(C)OC(=O)C1=CCC(NC(=O)C2(C)CN(c3cc(Cl)cc(Cl)c3)C(=O)O2)C1 (stereo not drawn) [Compound 105]
[1]; 16 g ai/ha, 0 to 100 scale
  Blackgrass plant response rating: 0
[1]; [27]
  Blackgrass plant response rating (0-100): 0
Kochia (Bassia scoparia) [2]; 16 g ai/ha, 0 to 100 scale
  Kochia plant response rating: 0
Kochia (Bassia scoparia) [2]; [27]
  Kochia plant response rating (0-100): 0
[3]; 16 g ai/ha, 0 to 100 scale
  Ryegrass, Italian plant response rating: 0
[3]; [27]
  Ryegrass, Italian plant response rating (0-100): 0
Corn (Zea mays) [4]; 16 g ai/ha, 0 to 100 scale
  Corn plant response rating: 0
Corn (Zea mays) [4]; [27]
  Corn plant response rating (0-100): 0
[5]; 16 g ai/ha, 0 to 100 scale
  Ragweed plant response rating: 0
[5]; [27]
  Ragweed plant response rating (0-100): 0
[6]; 16 g ai/ha, 0 to 100 scale
  Foxtail, Green plant response rating: 0
[6]; [27]
  Foxtail, Green plant response rating (0-100): 0
[7]; 16 g ai/ha, 0 to 100 scale
  Barnyardgrass plant response rating: 0
[7]; [27]
  Barnyardgrass plant response rating (0-100): 0
Soybean (Glycine max) [8]; 16 g ai/ha, 0 to 100 scale
  Soybean plant response rating: 0
Soybean (Glycine max) [8]; [27]
  Soybean plant response rating (0-100): 0
[9]; 16 g ai/ha, 0 to 100 scale
  Oat, Wild plant response rating: 0
[9]; [27]
  Oat, Wild plant response rating (0-100): 0
[10]; 16 g ai/ha, 0 to 100 scale
  Wheat plant response rating: 0
[10]; [27]
  Wheat plant response rating (0-100): 0
[11]
  Pigweed, Palmer plant response rating (0-100): 10
[12]
  Plant response rating, Barnyardgrass (0 to 100 scale, 0 is no effect and 100 is complete control): 0
[13]
  Plant response rating, Ducksalad (0 to 100 scale, 0 is no effect and 100 is complete control): 0
Rice (Oryza sativa)
  Plant response rating, Rice (0 to 100 scale, 0 is no effect and 100 is complete control): 0
[14]
  Plant response rating, Sedge, Umbrella (0 to 100 scale, 0 is no effect and 100 is complete control): 0
[15]; [28]
  Blackgrass plant response rating (0-100): 10
[15]; [29]
  Blackgrass plant response rating (0 to 100 scale): 0
Kochia (Bassia scoparia) [16]; [28]
  Kochia plant response rating (0-100): 0
Kochia (Bassia scoparia) [16]; [29]
  Kochia plant response rating (0 to 100 scale): 0
[17]; [28]
  Ryegrass, Italian plant response rating (0-100): 0
[17]; [29]
  Ryegrass, Italian plant response rating (0 to 100 scale): 0
Corn (Zea mays) [18]; [28]
  Corn plant response rating (0-100): 10
Corn (Zea mays) [18]; [29]
  Corn plant response rating (0 to 100 scale): 0
[19]
  Horseweed plant response rating (0-100): 20
[20]; [28]
  Ragweed plant response rating (0-100): 0
[20]; [29]
  Ragweed plant response rating (0 to 100 scale): 0
[21]; [28]
  Foxtail, Green plant response rating (0-100): 0
[21]; [29]
  Foxtail, Green plant response rating (0 to 100 scale): 0
[22]; [28]
  Barnyardgrass plant response rating (0-100): 30
[22]; [29]
  Barnyardgrass plant response rating (0 to 100 scale): 0
Soybean (Glycine max) [23]; [28]
  Soybean plant response rating (0-100): 0
Soybean (Glycine max) [23]; [29]
  Soybean plant response rating (0 to 100 scale): 0
[24]; [28]
  Oat, Wild plant response rating (0-100): 0
[24]; [29]
  Oat, Wild plant response rating (0 to 100 scale): 0
[25]; [28]
  Wheat plant response rating (0-100): 0
[25]; [29]
  Wheat plant response rating (0 to 100 scale): 0
[26]; [28]
  Pigweed, Palmer plant response rating (0-100): 10
[26]; [29]
  Pigweed, Palmer plant response rating (0 to 100 scale): 0
